Reference: PubChem BioAssay AID1963986 (Molecular Pharmacology Branch, DTP, NCI, 2024)
Values belong to the compound of their own block, whether it stands above or below them.

Test system: 171881-019-R-J1-PDC tumor spheroid viability
Test: Anticancer human tumor 171881-019-R-J1-PDC patient-derived invasive breast carcinoma cell line growth inhibition [PI3K]
Conditions: spheroids with HUVEC and MSC; for viability, T/C: stronger effect = lower value
Outline: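 High-throughput combination screen: PI3K inhibitors crossed with targeted small molecules on complex spheroids of tumor cells, HUVEC and MSCs at 37 degrees C, 5% CO2. Top concentration was at or near clinical Cmax (otherwise 10 microM), with half-log decrements.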

[1] = curve of first compound, second compound 0.0316 µM
[2] = curve of first compound, second compound 0.1 µM
[3] = curve of first compound, second compound 0.316 µM
[4] = curve of first compound, second compound 1 µM
[5] = curve of first compound, second compound 3.16 µM
[6] = curve of first compound, second compound 10 µM
[7] = second compound 0.0316 µM, first compound 0.000316 µM
[8] = second compound 0.0316 µM, first compound 0.001 µM
[9] = second compound 0.0316 µM, first compound 0.00316 µM
[10] = second compound 0.0316 µM, first compound 0.01 µM
[11] = second compound 0.0316 µM, first compound 0.0316 µM
[12] = second compound 0.0316 µM, first compound 0.1 µM
[13] = second compound 0.1 µM, first compound 0.000316 µM
[14] = second compound 0.1 µM, first compound 0.001 µM
[15] = second compound 0.1 µM, first compound 0.00316 µM
[16] = second compound 0.1 µM, first compound 0.01 µM
[17] = second compound 0.1 µM, first compound 0.0316 µM
[18] = second compound 0.1 µM, first compound 0.1 µM
[19] = second compound 0.316 µM, first compound 0.000316 µM
[20] = second compound 0.316 µM, first compound 0.001 µM
[21] = second compound 0.316 µM, first compound 0.00316 µM
[22] = second compound 0.316 µM, first compound 0.01 µM
[23] = second compound 0.316 µM, first compound 0.0316 µM
[24] = second compound 0.316 µM, first compound 0.1 µM
[25] = second compound 1 µM, first compound 0.000316 µM
[26] = second compound 1 µM, first compound 0.001 µM
[27] = second compound 1 µM, first compound 0.00316 µM
[28] = second compound 1 µM, first compound 0.01 µM
[29] = second compound 1 µM, first compound 0.0316 µM
[30] = second compound 1 µM, first compound 0.1 µM
[31] = second compound 3.16 µM, first compound 0.000316 µM
[32] = second compound 3.16 µM, first compound 0.001 µM
[33] = second compound 3.16 µM, first compound 0.00316 µM
[34] = second compound 3.16 µM, first compound 0.01 µM
[35] = second compound 3.16 µM, first compound 0.0316 µM
[36] = second compound 3.16 µM, first compound 0.1 µM
[37] = second compound 10 µM, first compound 0.000316 µM
[38] = second compound 10 µM, first compound 0.001 µM
[39] = second compound 10 µM, first compound 0.00316 µM
[40] = second compound 10 µM, first compound 0.01 µM
[41] = second compound 10 µM, first compound 0.0316 µM
[42] = second compound 10 µM, first compound 0.1 µM
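Further: spheroids exposed to compound for 7 days before viability read.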
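Wherever viability, T/C is given: 100% = DMSO vehicle-treated spheroids.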

IC50 [1]: > 100 nM
IC50 [2]: > 100 nM
IC50 [3]: > 100 nM
IC50 [4]: > 100 nM
IC50 [5]: > 100 nM
IC50 [6]: > 100 nM
SMILES: CC(=O)c1c(C)c2cnc(Nc3ccc(N4CCNCC4)cn3)nc2n(C2CCCC2)c1=O + CC(Nc1ncnc2nc[nH]c12)c1cc2cccc(Cl)c2c(=O)n1-c1ccccc1
viability, T/C [7]: 91.9%
viability, T/C [8]: 88%
viability, T/C [9]: 93%
viability, T/C [10]: 90.6%
viability, T/C [11]: 102%
viability, T/C [12]: 92.9%
viability, T/C [13]: 99.9%
viability, T/C [14]: 96.8%
viability, T/C [15]: 98.3%
viability, T/C [16]: 91.7%
viability, T/C [17]: 97.6%
viability, T/C [18]: 88.7%
viability, T/C [19]: 91%
viability, T/C [20]: 88.5%
viability, T/C [21]: 96%
viability, T/C [22]: 107%
viability, T/C [23]: 106%
viability, T/C [24]: 87.8%
viability, T/C [25]: 104%
viability, T/C [26]: 87.6%
viability, T/C [27]: 100%
viability, T/C [28]: 94.9%
viability, T/C [29]: 102%
viability, T/C [30]: 82.2%
viability, T/C [31]: 94.2%
viability, T/C [32]: 90.3%
viability, T/C [33]: 91.2%
viability, T/C [34]: 93.2%
viability, T/C [35]: 103%
viability, T/C [36]: 79.1%
viability, T/C [37]: 62.4%
viability, T/C [38]: 60.1%
viability, T/C [39]: 59.1%
viability, T/C [40]: 63.8%
viability, T/C [41]: 64.9%
viability, T/C [42]: 56.9%

IC50 (compound alone, run of 05/08/2023): 52.5 nM [middle of 8 runs]
SMILES: CC(Nc1ccc2c(c1)OCCn1cc(N3C(=O)OCC3C(F)F)nc1-2)C(N)=O (stereo unspecified)
viability, T/C (compound 0.00316 µM): 94.1% [middle of 8 runs]
viability, T/C (compound 0.01 µM): 83.8% [middle of 8 runs]
viability, T/C (compound 0.0316 µM): 56.6% [middle of 8 runs]
viability, T/C (compound 0.1 µM): 40.9% [middle of 8 runs]
viability, T/C (compound 0.316 µM): 28% [middle of 8 runs]
viability, T/C (compound 1 µM): 21.4% [middle of 8 runs]

IC50 [1]: > 100 nM
IC50 [2]: > 100 nM
IC50 [3]: > 100 nM
IC50 [4]: < 0.316 nM
IC50 [5]: < 0.316 nM
IC50 [6]: < 0.316 nM
SMILES: Cn1ncnc1[C@H]1c2n[nH]c(=O)c3cc(F)cc(c23)N[C@@H]1c1ccc(F)cc1 + Cc1nc(NC(=O)N2CCCC2C(N)=O)sc1-c1ccnc(C(C)(C)C(F)(F)F)c1
viability, T/C [7]: 96.5%
viability, T/C [8]: 91%
viability, T/C [9]: 84.8%
viability, T/C [10]: 88.8%
viability, T/C [11]: 86.3%
viability, T/C [12]: 79.8%
viability, T/C [13]: 86.7%
viability, T/C [14]: 65.1%
viability, T/C [15]: 76.4%
viability, T/C [16]: 73.1%
viability, T/C [17]: 74.1%
viability, T/C [18]: 66.6%
viability, T/C [19]: 50.2%
viability, T/C [20]: 56.3%
viability, T/C [21]: 51.6%
viability, T/C [22]: 56.4%
viability, T/C [23]: 55%
viability, T/C [24]: 46.6%
viability, T/C [25]: 32.8%
viability, T/C [26]: 32.8%
viability, T/C [27]: 29.4%
viability, T/C [28]: 31.6%
viability, T/C [29]: 29.6%
viability, T/C [30]: 27.4%
viability, T/C [31]: 13.4%
viability, T/C [32]: 14%
viability, T/C [33]: 12.8%
viability, T/C [34]: 13.4%
viability, T/C [35]: 13.3%
viability, T/C [36]: 12.1%
viability, T/C [37]: 3.72%
viability, T/C [38]: 3.81%
viability, T/C [39]: 4.27%
viability, T/C [40]: 3.81%
viability, T/C [41]: 3.35%
viability, T/C [42]: 2.96%
